Assay results reported in patent publication US20100203126A1 (priority 2007, published 2010).
Like-named read-outs stand apart in the source and are kept apart here.

Legend:
[1] = Stability test for ubidecarenone and vitamins/minerals under co-existence, mixed 1:1; assay type: physicochemical; settings: for % residual amount of ubidecarenone: mixed 1:1, 40±2° C., 75±5 RH %; for effect of ingredient on stability of ubidecarenone: each ingredient singly mixed with ubidecarenone (Table 26)
[2] = cited from earlier work
[3] = Stability test for ubidecarenone and vitamins/minerals under co-existence at typical formulation ratio; assay type: physicochemical; settings: ubidecarenone 50 mg, accelerated stability test
[4] = Stability test for ubidecarenone according to content of 90% ascorbic acid; assay type: physicochemical; settings: text summary of Table 28
Description: The results are as follows.

COC1=C(OC)C(=O)C(C/C=C(\C)CC/C=C(\C)CC/C=C(\C)CC/C=C(\C)CC/C=C(\C)CC/C=C(\C)CC/C=C(\C)CC/C=C(\C)CC/C=C(\C)CCC=C(C)C)=C(C)C1=O [Ubidecarenone]
% residual amount of ubidecarenone ([1]; 2 weeks): 99.2% | % residual amount of ubidecarenone ([1]; initial (regarded as 100.0%)): 100% | solubility ([2]; in alcohol): insoluble | solubility ([2]; in ether): highly soluble | solubility ([2]; in water): insoluble | residual amount of ubidecarenone, 2 weeks (%) ([3]; 2 weeks): 99.2% | residual amount of ubidecarenone, Initial (%) ([3]; initial): 100%

CC(=O)Oc1c(C)c(C)c2c(c1C)CCC(C)(CCC[C@H](C)CCC[C@H](C)CCCC(C)C)O2 (stereo partly drawn) [alpha-tocopherol acetate]
effect of ingredient on stability of ubidecarenone [1]: excessively reduce the stability of ubidecarenone

O=C1O[C@H]([C@@H](O)CO)C(O)=C1O [ascorbic acid]
residual amount of ubidecarenone as content of ascorbic acid in sample tablet increases [4]: remarkably reduced

C[N+](C)(C)CCO.O=C([O-])C(O)C(O)C(=O)O (stereo not drawn) [choline bitartrate]
effect of ingredient on stability of ubidecarenone [1]: excessively reduce the stability of ubidecarenone

C=C1CC[C@H](O)C/C1=C/C=C1\CCC[C@]2(C)[C@@H]([C@H](C)CCCC(C)C)CC[C@@H]12 [dried cholecalciferol]
effect of ingredient on stability of ubidecarenone [1]: excessively reduce the stability of ubidecarenone

CCCCCCCCCCCCCCCC(=O)OC/C=C(C)/C=C/C=C(C)/C=C/C1=C(C)CCCC1(C)C [retinol palmitate]
effect of ingredient on stability of ubidecarenone [1]: excessively reduce the stability of ubidecarenone
